From ChEMBL document CHEMBL3045475, “Sensitivity of Sclerotinia sclerotiorum from oilseed crops to boscalid in Jiangsu Province of China” (Crop Prot, 2009)
In brackets after ≈: the same amount, converted by molar mass.

Tests used:
Sclerotinia sclerotiorum [1] = assay: Antifungal activity against carbendazim-resistant and dimethachlon-sensitive Sclerotinia sclerotiorum TZ83 assessed as inhibition of mycelial growth after 2 days; type: functional, organism-based; conditions: TZ83, 48 h
Sclerotinia sclerotiorum [2] = assay: Antifungal activity against carbendazim-resistant and dimethachlon-sensitive Sclerotinia sclerotiorum YC35 assessed as inhibition of mycelial growth after 2 days; type: functional, organism-based; conditions: YC35, 48 h
Sclerotinia sclerotiorum [3] = assay: Antifungal activity against Sclerotinia sclerotiorum in oilseed rape field assessed as disease control at 250/ha measured 1 week before harvest; type: functional
Sclerotinia sclerotiorum [4] = assay: Antifungal activity against Sclerotinia sclerotiorum in oilseed rape field assessed as disease control at 125/ha measured 1 week before harvest; type: functional
Sclerotinia sclerotiorum [5] = assay: Antifungal activity against Sclerotinia sclerotiorum in oilseed rape field assessed as disease control at 187.5/ha measured 1 week before harvest; type: functional
Sclerotinia sclerotiorum [6] = assay: Antifungal activity against Sclerotinia sclerotiorum in oilseed rape field assessed as disease control at 80/ha measured 1 week before harvest; type: functional
Sclerotinia sclerotiorum [7] = assay: Antifungal activity against Sclerotinia sclerotiorum in synthetic medium assessed as inhibition of mycelial growth after 2 days; type: functional, organism-based; conditions: 48 h
Sclerotinia sclerotiorum [8] = assay: Antifungal activity against Sclerotinia sclerotiorum in czapek medium assessed as inhibition of mycelial growth after 2 days; type: functional, organism-based; conditions: 48 h
Sclerotinia sclerotiorum [9] = assay: Antifungal activity against Sclerotinia sclerotiorum in PDA plates assessed as inhibition of mycelial growth after 2 days; type: functional, organism-based; conditions: 48 h
Sclerotinia sclerotiorum [10] = assay: Antifungal activity against carbendazim-resistant and dimethachlon-resistant Sclerotinia sclerotiorum CZ57-2 assessed as inhibition of mycelial growth after 2 days; type: functional, organism-based; conditions: CZ57-2, 48 h
Sclerotinia sclerotiorum [11] = assay: Antifungal activity against carbendazim-resistant and dimethachlon-resistant Sclerotinia sclerotiorum CZ57-3 assessed as inhibition of mycelial growth after 2 days; type: functional, organism-based; conditions: CZ57-3, 48 h
Sclerotinia sclerotiorum [12] = assay: Antifungal activity against carbendazim-resistant and dimethachlon-resistant Sclerotinia sclerotiorum ZJ288-3 assessed as inhibition of mycelial growth after 2 days; type: functional, organism-based; conditions: ZJ288-3, 48 h
Sclerotinia sclerotiorum [13] = assay: Antifungal activity against carbendazim-resistant and dimethachlon-resistant Sclerotinia sclerotiorum CZ57-1 assessed as inhibition of mycelial growth after 2 days; type: functional, organism-based; conditions: CZ57-1, 48 h
Sclerotinia sclerotiorum [14] = assay: Antifungal activity against carbendazim-resistant and dimethachlon-resistant Sclerotinia sclerotiorum ZJ288-2 assessed as inhibition of mycelial growth after 2 days; type: functional, organism-based; conditions: ZJ288-2, 48 h
Sclerotinia sclerotiorum [15] = assay: Antifungal activity against carbendazim-resistant and dimethachlon-sensitive Sclerotinia sclerotiorum SZ48 assessed as inhibition of mycelial growth after 2 days; type: functional, organism-based; conditions: SZ48, 48 h
Sclerotinia sclerotiorum [16] = assay: Antifungal activity against carbendazim-resistant and dimethachlon-resistant Sclerotinia sclerotiorum ZJ288-1 assessed as inhibition of mycelial growth after 2 days; type: functional, organism-based; conditions: ZJ288-1, 48 h
Sclerotinia sclerotiorum [17] = assay: Antifungal activity against carbendazim-resistant and dimethachlon-sensitive Sclerotinia sclerotiorum ZJ47 assessed as inhibition of mycelial growth after 2 days; type: functional, organism-based; conditions: ZJ47, 48 h
Sclerotinia sclerotiorum [18] = assay: Antifungal activity against carbendazim-resistant and dimethachlon-sensitive Sclerotinia sclerotiorum ZJ44 assessed as inhibition of mycelial growth after 2 days; type: functional, organism-based; conditions: ZJ44, 48 h
Sclerotinia sclerotiorum [19] = assay: Antifungal activity against carbendazim-resistant and dimethachlon-sensitive Sclerotinia sclerotiorum CZ57 assessed as inhibition of mycelial growth after 2 days; type: functional, organism-based; conditions: CZ57, 48 h
Sclerotinia sclerotiorum [20] = assay: Antifungal activity against carbendazim-resistant and dimethachlon-sensitive Sclerotinia sclerotiorum ZJ288 assessed as inhibition of mycelial growth after 2 days; type: functional, organism-based; conditions: ZJ288, 48 h
Sclerotinia sclerotiorum [21] = assay: Antifungal activity against carbendazim and dimethachlon-sensitive Sclerotinia sclerotiorum SZ47 assessed as inhibition of mycelial growth after 2 days; type: functional, organism-based; conditions: SZ47, 48 h
Sclerotinia sclerotiorum [22] = assay: Antifungal activity against carbendazim and dimethachlon-sensitive Sclerotinia sclerotiorum SZ62 assessed as inhibition of mycelial growth after 2 days; type: functional, organism-based; conditions: SZ62, 48 h
Sclerotinia sclerotiorum [23] = assay: Antifungal activity against carbendazim and dimethachlon-sensitive Sclerotinia sclerotiorum YZ116 assessed as inhibition of mycelial growth after 2 days; type: functional, organism-based; conditions: YZ116, 48 h
Sclerotinia sclerotiorum [24] = assay: Antifungal activity against carbendazim and dimethachlon-sensitive Sclerotinia sclerotiorum YZ114 assessed as inhibition of mycelial growth after 2 days; type: functional, organism-based; conditions: YZ114, 48 h
Sclerotinia sclerotiorum [25] = assay: Antifungal activity against carbendazim and dimethachlon-sensitive Sclerotinia sclerotiorum YZ112 assessed as inhibition of mycelial growth after 2 days; type: functional, organism-based; conditions: YZ112, 48 h
Sclerotinia sclerotiorum [26] = assay: Antifungal activity against Sclerotinia sclerotiorum in oilseed rape field assessed as disease control at 750/ha measured 1 week before harvest; type: functional
Sclerotinia sclerotiorum [27] = assay: Antifungal activity against Sclerotinia sclerotiorum in oilseed rape field assessed as disease control at 690/ha measured 1 week before harvest; type: functional

SMILES | EC50 (Sclerotinia sclerotiorum [1]) [µg/mL] | EC50 (Sclerotinia sclerotiorum [2]) [µg/mL] | EC50 (Sclerotinia sclerotiorum [10]) [µg/mL] | EC50 (Sclerotinia sclerotiorum [11]) [µg/mL] | EC50 (Sclerotinia sclerotiorum [12]) [µg/mL] | EC50 (Sclerotinia sclerotiorum [13]) [µg/mL] | EC50 (Sclerotinia sclerotiorum [14]) [µg/mL] | EC50 (Sclerotinia sclerotiorum [15]) [µg/mL] | EC50 (Sclerotinia sclerotiorum [16]) [µg/mL] | EC50 (Sclerotinia sclerotiorum [17]) [µg/mL] | EC50 (Sclerotinia sclerotiorum [18]) [µg/mL] | EC50 (Sclerotinia sclerotiorum [19]) [µg/mL] | EC50 (Sclerotinia sclerotiorum [20]) [µg/mL] | EC50 (Sclerotinia sclerotiorum [21]) [µg/mL] | EC50 (Sclerotinia sclerotiorum [22]) [µg/mL] | EC50 (Sclerotinia sclerotiorum [23]) [µg/mL] | EC50 (Sclerotinia sclerotiorum [24]) [µg/mL] | EC50 (Sclerotinia sclerotiorum [25]) [µg/mL] | also measured
O=C(Nc1ccccc1-c1ccc(Cl)cc1)c1cccnc1Cl [BOSCALID] | 0.19 (≈ 0.554 µM) | 0.195 (≈ 0.568 µM) | 0.183 (≈ 0.533 µM) | 0.163 (≈ 0.475 µM) | 0.262 (≈ 0.763 µM) | 0.115 (≈ 0.335 µM) | 0.126 (≈ 0.367 µM) | 0.168 (≈ 0.489 µM) | 0.195 (≈ 0.568 µM) | 0.188 (≈ 0.548 µM) | 0.223 (≈ 0.65 µM) | 0.186 (≈ 0.542 µM) | 0.18 (≈ 0.524 µM) | 0.181 (≈ 0.527 µM) | 0.17 (≈ 0.495 µM) | 0.195 (≈ 0.568 µM) | 0.195 (≈ 0.568 µM) | 0.211 (≈ 0.615 µM) | Activity (Sclerotinia sclerotiorum [3]): 75.1%; Activity (Sclerotinia sclerotiorum [4]): 65.2%; Activity (Sclerotinia sclerotiorum [5]): 69%; Activity (Sclerotinia sclerotiorum [6]): 49.7%; EC50 (Sclerotinia sclerotiorum [7]): 0.12 µg/mL (≈ 0.35 µM); EC50 (Sclerotinia sclerotiorum [8]): 0.13 µg/mL (≈ 0.379 µM); EC50 (Sclerotinia sclerotiorum [9]): 0.17 µg/mL (≈ 0.495 µM)
COC(=O)Nc1nc2ccccc2[nH]1 [CARBENDAZIM] | > 100 | > 100 | > 100 | > 100 | > 100 | > 100 | > 100 | > 100 | > 100 | > 100 | > 100 | 0.168 (≈ 0.879 µM) | 0.147 (≈ 0.769 µM) | 0.177 (≈ 0.926 µM) | 0.186 (≈ 0.973 µM) | 0.137 (≈ 0.717 µM) | 0.134 (≈ 0.701 µM) | 0.106 (≈ 0.554 µM) | Activity (Sclerotinia sclerotiorum [26]): 18.9%
O=C1CCC(=O)N1c1cc(Cl)cc(Cl)c1 [DIMETHACHLON] | 0.335 (≈ 1.37 µM) | 0.306 (≈ 1.25 µM) | 152 (≈ 622 µM) | 125 (≈ 511 µM) | 68 (≈ 279 µM) | 166 (≈ 682 µM) | 86.8 (≈ 356 µM) | 0.364 (≈ 1.49 µM) | 92.4 (≈ 378 µM) | 0.367 (≈ 1.5 µM) | 0.317 (≈ 1.3 µM) | 0.406 (≈ 1.66 µM) | 0.397 (≈ 1.63 µM) | 0.321 (≈ 1.32 µM) | 0.351 (≈ 1.44 µM) | 0.346 (≈ 1.42 µM) | 0.365 (≈ 1.5 µM) | 0.401 (≈ 1.64 µM) | Activity (Sclerotinia sclerotiorum [27]): 44.6%
